# Test results: the supplement of paper PMC10307832
# Assays:
# Assay in all cases: relative viability (nuclei count vs DMSO), 5 days (fraction); higher = more cells survive
# [1] = compound: COC1=CC=C(C=C1)COC2=C(C=C(C=C2)CC3=CN=C(N=C3N)N)OC [GW-2580] + Cc1cc(Nc2cc(N3CCN(C)CC3)nc(Sc3ccc(NC(=O)C4CC4)cc3)n2)n[nH]1 [Tozasertib] (partner 0.1 µM)
# Summary of the method: (§1)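 Nuclei were stained with Hoechst during a one-step fixation (final 0.05% Triton X-100, 1% formaldehyde, 1 ug/ml Hoechst) carried out 5 days after dosing, then counted on 4× images. The cells, lung cancer lines in 1536-well plates, had been dosed by pin tool the day after seeding with one drug alone or a fixed anchor-drug dose plus five library-drug doses (not always all listed) in √10 steps. Relative viability is the nuclei count in treated wells divided by that in vehicle wells, and each value is the median of duplicate plates.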
# [2] = compound: Cc1cnc(Nc2ccc(OCCN3CCCC3)cc2)nc1Nc1cccc(S(=O)(=O)NC(C)(C)C)c1 [Fedratinib] + CC(=O)c1c(C)c2cnc(Nc3ccc(N4CCNCC4)cn3)nc2n(C2CCCC2)c1=O [Palbociclib] (partner 0.5 µM)
# Summary of the method: as §1
# [3] = compound: Cc1cnc(Nc2ccc(OCCN3CCCC3)cc2)nc1Nc1cccc(S(=O)(=O)NC(C)(C)C)c1 [Fedratinib] + N=C(N)NC(=N)NCCc1ccccc1 [Phenformin] (partner 250 µM)
# Summary of the method: as §1
# [4] = compound: Cc1cnc(Nc2ccc(OCCN3CCCC3)cc2)nc1Nc1cccc(S(=O)(=O)NC(C)(C)C)c1 [Fedratinib] + Cc1nc(NC(=O)N2CCC[C@H]2C(N)=O)sc1-c1ccnc(C(C)(C)C(F)(F)F)c1 [Alpelisib] (partner 2 µM)
# Summary of the method: as §1
# [5] = compound: COC1=CC=C(C=C1)COC2=C(C=C(C=C2)CC3=CN=C(N=C3N)N)OC [GW-2580] + CS(=O)(=O)CCNCc1ccc(-c2ccc3ncnc(Nc4ccc(OCc5cccc(F)c5)c(Cl)c4)c3c2)o1 [Lapatinib] (partner 2 µM)
# Summary of the method: as §1
# [6] = compound: Cc1cnc(Nc2ccc(OCCN3CCCC3)cc2)nc1Nc1cccc(S(=O)(=O)NC(C)(C)C)c1 [Fedratinib] + CCNC(=O)c1noc(-c2cc(C(C)C)c(O)cc2O)c1-c1ccc(CN2CCOCC2)cc1 [Luminespib] (partner 0.01 µM)
# Summary of the method: as §1
Cell Line,relative viability ([1]; first compound 0.08 µM),relative viability ([1]; first compound 8 µM),relative viability ([2]; first compound 0.1 µM),relative viability ([2]; first compound 0.3162 µM),relative viability ([2]; first compound 1 µM),relative viability ([3]; first compound 0.1 µM),relative viability ([3]; first compound 0.3162 µM),relative viability ([3]; first compound 1 µM),relative viability ([1]; first compound 0.8 µM),relative viability ([1]; first compound 2.53 µM),relative viability ([4]; first compound 0.1 µM),relative viability ([4]; first compound 0.3162 µM),relative viability ([4]; first compound 1 µM),relative viability ([5]; first compound 0.08 µM),relative viability ([5]; first compound 0.8 µM),relative viability ([5]; first compound 2.53 µM),relative viability ([5]; first compound 8 µM),relative viability ([6]; first compound 0.1 µM),relative viability ([6]; first compound 0.3162 µM),relative viability ([6]; first compound 1 µM)
NCI-H1648,0.427,0.429,0.257,0.262,0.25,,,,,,,,,,,,,,,
SK-MES-1,1.06,0.816,0.339,0.32,0.271,0.511,0.644,0.532,1.06,0.88,0.909,0.829,0.809,0.47,0.496,0.392,0.474,0.741,0.773,0.609
HCC-366,0.102,0.19,0.603,0.355,0.315,0.482,0.673,0.642,0.146,0.12,0.273,0.458,0.356,1.08,1.02,0.977,1.19,,,
201T,0.998,0.82,0.362,0.342,0.33,0.429,0.478,0.414,0.935,0.96,1.04,0.974,0.99,1.09,1.11,0.983,1.06,1,1.06,1.02
HCC-827,0.557,0.371,0.454,0.485,0.475,0.388,0.42,0.464,0.469,0.47,1.04,0.95,1.02,0.225,0.211,0.167,0.152,0.436,0.698,0.492
NCI-H647,0.358,0.189,0.346,0.362,0.364,0.475,0.473,0.309,0.218,0.418,1.13,1.09,0.809,1.22,1.29,0.926,1.15,0.15,0.209,0.177
NCI-H2023,0.475,0.342,0.391,0.356,0.248,0.431,0.463,0.456,0.431,0.522,0.578,0.629,0.56,0.899,0.964,0.633,0.797,0.578,0.581,0.632
NCI-H520,0.421,0.46,0.149,0.214,0.164,0.431,0.564,0.399,0.459,0.443,0.912,0.845,0.805,0.973,0.926,0.849,0.931,0.265,0.194,0.23
RERF-LC-KJ,0.474,0.367,1.01,1.05,1.02,0.384,0.433,0.373,0.593,0.508,0.792,0.86,0.756,0.895,0.909,0.736,0.884,1.13,1.24,1.17
A-427,0.198,0.172,0.505,0.492,0.487,0.26,0.298,0.147,0.208,0.19,1.07,0.949,0.959,1.17,1.15,0.98,1.07,0.901,0.884,0.921
NCI-H441,0.698,0.655,0.195,0.176,0.204,0.812,0.747,0.727,0.704,0.584,0.607,0.655,0.557,,,,,0.331,0.262,0.343
NCI-H1703,,,,,,,,,,,0.161,0.361,0.25,1.1,1.32,1.2,0.946,,,
NCI-H1792,,,0.684,0.622,0.611,,0.77,0.338,,,0.458,0.662,0.666,0.936,1.1,0.484,1.1,0.231,0.419,0.362
Calu-6,,,,,,,,,,,0.915,0.906,0.801,1.14,1.18,1.06,1.08,,,
SK-LU-1,0.362,0.292,0.393,0.317,0.34,0.5,0.514,0.328,0.338,0.272,,0.93,0.701,0.962,1.14,0.829,0.979,0.181,0.19,0.16
PC-3 [JPC-3],0.89,0.854,0.481,0.523,0.542,0.508,0.466,0.482,0.916,0.891,0.985,1.01,1.09,0.458,0.462,0.358,0.446,0.716,0.793,0.642
EMC-BAC-2,0.279,0.261,0.533,0.503,0.489,0.404,0.523,0.421,0.261,0.24,0.85,0.754,0.711,0.909,0.95,0.84,0.901,1.27,1.12,1.18
LK-2,0.173,0.171,0.55,0.581,0.608,0.293,0.452,0.201,0.166,0.192,,0.936,0.936,0.972,0.952,0.513,0.735,0.173,0.169,0.186
